Assays:
Type in all cases: functional
Rattus norvegicus [1] = assay: Anti-inflammatory activity in Wistar rat assessed as reduction in carrageenan induced paw edema by measuring paw volume as ml of Hg at 100 mg/kg, po administered 30 mins before carrageenan challenge measured 4 hrs post carrageenan challenge (reference value: 0.36 +/- 0.3 ml of Hg)
Rattus norvegicus [2] = assay: Anti-inflammatory activity in Wistar rat assessed as reduction in carrageenan induced paw edema by measuring paw volume as ml of Hg at 100 mg/kg, po administered 30 mins before carrageenan challenge measured 6 hrs post carrageenan challenge (reference value: 0.36 +/- 0.3 ml of Hg)
Rattus norvegicus [3] = assay: Anti-inflammatory activity in Wistar rat assessed as reduction in carrageenan induced paw edema by measuring paw volume as ml of Hg at 100 mg/kg, po administered 30 mins before carrageenan challenge measured 1 hr post carrageenan challenge (reference value: 0.36 +/- 0.3 ml of Hg)
Rattus norvegicus [4] = assay: Anti-inflammatory activity in Wistar rat assessed as reduction in carrageenan induced paw edema by measuring paw volume as ml of Hg at 100 mg/kg, po administered 30 mins before carrageenan challenge measured 2 hrs post carrageenan challenge (reference value: 0.36 +/- 0.3 ml of Hg)

| SMILES | Activity (Rattus norvegicus [1]) | Activity (Rattus norvegicus [2]) | Activity (Rattus norvegicus [3]) | Activity (Rattus norvegicus [4]) |
| --- | --- | --- | --- | --- |
| Cc1noc2c(C(=O)c3ccccc3)noc12 | 0.82 mL | 0.63 mL | 0.8 mL | 0.86 mL |
| Cc1noc2c(C(=O)c3ccccc3[N+](=O)[O-])noc12 | 0.81 mL | 0.63 mL | 0.75 mL | 0.83 mL |
| Cc1noc2c(C(=O)c3ccccc3O)noc12 | 0.8 mL | 0.61 mL | 0.82 mL | 0.93 mL |
| COc1ccc(C(=O)c2noc3c(C)noc23)cc1 | 0.83 mL | 0.62 mL | 0.78 mL | 0.7 mL |
| Cc1noc2c(C(=O)c3ccccc3Cl)noc12 | 0.51 mL | 0.5 mL | 0.51 mL | 0.68 mL |
| Cc1noc2c(C(=O)c3ccc(N(C)C)cc3)noc12 | 0.63 mL | 0.55 mL | 0.78 mL | 0.83 mL |
| Cc1noc2c(C(=O)c3ccccc3Br)noc12 | 0.65 mL | 0.51 mL | 0.5 mL | 0.68 mL |
| Cc1noc2c(C(=O)c3ccc(Cl)cc3)noc12 | 0.67 mL | 0.41 mL | 0.53 mL | 0.65 mL |
| Cc1noc2c(C(=O)c3ccc(Br)cc3)noc12 | 0.54 mL | 0.32 mL | 0.52 mL | 0.69 mL |
